Measured values from article PMC10110569, “Structure and mechanism of the alkane-oxidizing enzyme AlkB” (Nature Communications, 2023).

Assays:
FtAlkB = biological target: T1, FtAlkB (Fontimonas thermophila, UniProt A0A1I2KHB9); assay: GC-MS alkane hydroxylation assay, purified enzyme; assay type: biochemical; details: purified AlkG, maize ferredoxin reductase, NADPH; 37 °C
T1 construct: gene SAMN04488120_1209; residues 4-399, codon optimized, pRSF vector, E. coli BL21 (DE3), 3C protease digestion (tag cut), DDM-solubilized; 45 kD; cryo-EM with nanobody AP32; lysate assays with AlkG and AlkT as redox partners
T1 sequence (A0A1I2KHB9 4-399): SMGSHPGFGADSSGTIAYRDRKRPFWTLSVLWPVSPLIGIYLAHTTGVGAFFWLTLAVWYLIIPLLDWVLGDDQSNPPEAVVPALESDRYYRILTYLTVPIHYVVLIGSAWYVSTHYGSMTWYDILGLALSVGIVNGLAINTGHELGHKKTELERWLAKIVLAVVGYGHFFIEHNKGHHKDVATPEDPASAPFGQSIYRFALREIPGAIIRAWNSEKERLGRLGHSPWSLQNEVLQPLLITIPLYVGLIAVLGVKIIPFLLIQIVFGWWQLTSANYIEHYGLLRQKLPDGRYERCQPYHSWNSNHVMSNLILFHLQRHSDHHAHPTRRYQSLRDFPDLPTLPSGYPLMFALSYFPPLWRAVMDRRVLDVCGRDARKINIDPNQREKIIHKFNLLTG

[1] = biological target: T2, Fontimonas thermophila alkane monooxygenase AlkB (FtAlkB), amino acids 4-399 (Fontimonas thermophila); assay: cryo-EM structure; FtAlkB-nanobody AP32 complex in 20 mM HEPES pH 7.4, 150 mM NaCl, 0.02% DDM; single-particle cryo-EM, 3.59 Å for FtAlkB-nanobody (3.45 Å with a mask on FtAlkB only); details: both partners purified
T2 construct: Alkane monooxygenase AlkB of Fontimonas thermophila, amino acids 4-399, codon optimized, in pRSF vector; Membrane protein kept in DDM (0.02% in SEC buffer); source: E. coli BL21 (DE3), solubilized in 1% DDM, purified (cobalt resin, 3C protease digestion, SEC)
T2 chain: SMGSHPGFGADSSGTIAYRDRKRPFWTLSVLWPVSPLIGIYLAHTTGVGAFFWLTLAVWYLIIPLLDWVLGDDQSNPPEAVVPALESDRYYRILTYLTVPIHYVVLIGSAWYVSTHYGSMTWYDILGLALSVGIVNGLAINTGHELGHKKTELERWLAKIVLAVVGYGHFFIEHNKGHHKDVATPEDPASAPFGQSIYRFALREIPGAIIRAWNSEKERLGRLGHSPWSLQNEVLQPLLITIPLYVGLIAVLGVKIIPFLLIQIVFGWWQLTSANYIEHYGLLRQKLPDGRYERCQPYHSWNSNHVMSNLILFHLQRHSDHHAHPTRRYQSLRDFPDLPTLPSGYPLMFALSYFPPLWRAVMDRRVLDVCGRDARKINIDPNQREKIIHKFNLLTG

Molecule: CCCCCCCC [octane]
- GC-MS alkane hydroxylation assay, purified enzyme (FtAlkB): FtAlkB displayed robust alkane hydroxylase activities on a model alkane octane

B1: Nanobody AP32 (anti-FtAlkB nanobody) (VHH)
VHH: QVQLQESGGGLVQAGGSLRLSCAASGTISRYWTMGWYRQAPGKERELVAGISEGGSTNYADSVKGRFTISRDNAKNTVYLQMNSLKPEDTAVYYCAVTYRGPWFNRDPHYYWGQGTQVTVSS
notes: Synthetic nanobody from a library after three runs of selection; the model was started from the nanobody of PDB 7SL8 with the CDRs rebuilt, so 7SL8 is not this nanobody; also called FtAlkB-specific nanobody; source: E. coli BL21 (DE3), purified
- binding result [1]: binds
